{
  "source": "patent US5401490A",
  "about": "“Markers of tissue hypoxia” (priority 1989, dated 1995)",
  "key": {"[1]": {"assay": "Tissue distribution of radioactivity after intravenous injection", "format": "in vivo, BALB/C mice", "settings": "mouse, iv, i.v.; for tissue uptake at 0.5 h: 0.50 h", "text": "Tables 1 and 2 show the percent of injected IAZG and IAZA respectively per gram of wet tissue for selected tissues excised from BALB/C mice bearing EMT-6 tumors. This tumor model is known to have a high hypoxic fraction (0.33) (16). […] Hepatobiliary excretion may play a role in blood clearance as evidenced by elevated liver radioactivity and the appearance of activity in the intestine. Some oxidative or reductive metabolites of the 2-nitroimidazoles may also become bound to liver tissue, as was postulated in an in vivo study with ^14 C-MISO (6). This supposition is supported by the persistence of liver radioactivity at longer time periods. […] At 8 and 24 hours thyroid levels of IAZG are 7.2 and 30.9% of the total body activity and for IAZA they are 7.9 and 33.8% of total body activity. EXAMPLE 11 TISSUE DISTRIBUTION AND EXCRETION Tumor propagation of EMT-6 tumors in BALB/C mice was accomplished by subcutaneous injection of a cell suspension (10^5 cells in 0.1 mL) as described previously (10). Tumors reached about 10 mm in diameter (≈0.5 g) at 12 to 14 days, at which time each animal was given a bolus intravenous injection of ^125 I-labelled test drug via the tail vein (40 to 60 kBq in 0.1 mL). At set time periods the animals were asphyxiated with CO2 and exsanguinated via cardiac puncture. Tissues were dissected, weighed wet into vials and counted for ^125 I-activity. Whole-body activity was determined by summation of total activity in tissues and in residual carcass, and blood activity was determined from the blood aliquot, assuming blood to be 6.5% of the total body weight. EXAMPLE 12 Male BALB/c mice (20-25 g) were inoculated subcutaneously in the left flank with a suspension of murine EMT-6 cells (10^5 cells in 0.1 mL) (14). After 12 to 14 days, when the tumors reached the desired size (8-10 mm diameter), each mouse received a single intravenous (iv) injection of ^125 I-IAZA (59 kBq in 0.1 mL). […] Heart, lung, liver, spleen, muscle, bone, thyroid, kidney, stomach, small intestine, tail, tumor and skin were removed upon necropsy, weighed and analyzed for ^125 I using a Beckman Model 8000 gamma scintillation counter. The remaining carcass mass was also weighed and radioassayed."}, "EMT-6 cells": {"system": "EMT-6 cells", "assay": "Toxicity to hypoxic EMT-6 cells (surviving fraction)", "format": "cell-based, mouse", "description": "This represents a cytosidal toxicity about 10× that of MISO under the same conditions.\nEXAMPLE 9 TOXICITY STUDIES\nEMT-6 mouse fibrosarcoma cells in stirred cultures, as described previously (5), were exposed to various concentrations of the test drugs under hypoxic conditions. Cells were removed at various intervals and the colony-forming ability was assessed by plating the cells in drug-free complete MEM with 10% fetal calf serum. The data were used to construct plots of surviving fraction of EMT-6 cells against time of incubation with test drug at various drug concentrations (FIG. 2) as in Jette (13)."}, "[2]": {"settings": "blood, read-out: Percent of Injected Dose per Gram, Blood"}, "[3]": {"settings": "intestine, read-out: Percent of Injected Dose per Gram, Intestine"}, "[4]": {"settings": "kidney, read-out: Percent of Injected Dose per Gram, Kidney"}, "[5]": {"settings": "liver, read-out: Percent of Injected Dose per Gram, Liver"}, "[6]": {"settings": "lung, read-out: Percent of Injected Dose per Gram, Lung"}, "[7]": {"settings": "muscle, read-out: Percent of Injected Dose per Gram, Muscle"}, "[8]": {"settings": "stomach, read-out: Percent of Injected Dose per Gram, Stomach"}, "[9]": {"settings": "tumor, read-out: Percent of Injected Dose per Gram, Tumor"}},
  "note": "Read-outs that look alike come from different tables or passages of the source.",
  "data": [
    {"smiles": "O=[N+]([O-])c1nccn1[C@@H]1O[C@H](CI)[C@H](O)[C@H](O)[C@H]1O", "note": "[IAZG, 1-(6-iodo-6-deoxy-β-D-galactopyranosyl)-2-nitroimidazole]", "values": [
      {"measurement": "tissue uptake at 0.25 h", "setting": "[1]; [2]", "result": "1.83 ± 0.17", "unit": "%ID/g"},
      {"measurement": "tissue uptake at 0.5 h", "setting": "[1]; [2]", "result": "1.11 ± 0.16", "unit": "%ID/g"},
      {"measurement": "tissue uptake at 1 h", "setting": "[1]; [2]", "result": "0.86 ± 0.26", "unit": "%ID/g"},
      {"measurement": "tissue uptake at 2 h", "setting": "[1]; [2]", "result": "0.53 ± 0.1", "unit": "%ID/g"},
      {"measurement": "tissue uptake at 4 h", "setting": "[1]; [2]", "result": "0.28 ± 0.07", "unit": "%ID/g"},
      {"measurement": "tissue uptake at 8 h", "setting": "[1]; [2]", "result": "0.16 ± 0.03", "unit": "%ID/g"},
      {"measurement": "tissue uptake at 24 h", "setting": "[1]; [2]", "result": "0.06 ± 0.02", "unit": "%ID/g"},
      {"measurement": "tissue uptake at 0.25 h", "setting": "[1]; [3]", "result": "6.82 ± 5.2", "unit": "%ID/g"},
      {"measurement": "tissue uptake at 0.5 h", "setting": "[1]; [3]", "result": "3.65 ± 1.36", "unit": "%ID/g"},
      {"measurement": "tissue uptake at 1 h", "setting": "[1]; [3]", "result": "1.16 ± 0.25", "unit": "%ID/g"},
      {"measurement": "tissue uptake at 2 h", "setting": "[1]; [3]", "result": "0.82 ± 0.45", "unit": "%ID/g"},
      {"measurement": "tissue uptake at 4 h", "setting": "[1]; [3]", "result": "0.29 ± 0.07", "unit": "%ID/g"},
      {"measurement": "tissue uptake at 8 h", "setting": "[1]; [3]", "result": "0.17 ± 0.08", "unit": "%ID/g"},
      {"measurement": "tissue uptake at 24 h", "setting": "[1]; [3]", "result": "0.05 ± 0.02", "unit": "%ID/g"},
      {"measurement": "tissue uptake at 0.25 h", "setting": "[1]; [4]", "result": "15.6 ± 1.15", "unit": "%ID/g"},
      {"measurement": "tissue uptake at 0.5 h", "setting": "[1]; [4]", "result": "8.94 ± 1.2", "unit": "%ID/g"},
      {"measurement": "tissue uptake at 1 h", "setting": "[1]; [4]", "result": "4.56 ± 1.41", "unit": "%ID/g"},
      {"measurement": "tissue uptake at 2 h", "setting": "[1]; [4]", "result": "2.67 ± 0.51", "unit": "%ID/g"},
      {"measurement": "tissue uptake at 4 h", "setting": "[1]; [4]", "result": "1.1 ± 0.29", "unit": "%ID/g"},
      {"measurement": "tissue uptake at 8 h", "setting": "[1]; [4]", "result": "0.4 ± 0.02", "unit": "%ID/g"},
      {"measurement": "tissue uptake at 24 h", "setting": "[1]; [4]", "result": "0.09 ± 0.03", "unit": "%ID/g"},
      {"measurement": "tissue uptake at 0.25 h", "setting": "[1]; [5]", "result": "5.5 ± 0.79", "unit": "%ID/g"},
      {"measurement": "tissue uptake at 0.5 h", "setting": "[1]; [5]", "result": "2.96 ± 0.49", "unit": "%ID/g"},
      {"measurement": "tissue uptake at 1 h", "setting": "[1]; [5]", "result": "1.48 ± 0.24", "unit": "%ID/g"},
      {"measurement": "tissue uptake at 2 h", "setting": "[1]; [5]", "result": "1.4 ± 0.56", "unit": "%ID/g"},
      {"measurement": "tissue uptake at 4 h", "setting": "[1]; [5]", "result": "0.43 ± 0.12", "unit": "%ID/g"},
      {"measurement": "tissue uptake at 8 h", "setting": "[1]; [5]", "result": "0.2 ± 0.02", "unit": "%ID/g"},
      {"measurement": "tissue uptake at 24 h", "setting": "[1]; [5]", "result": "0.08 ± 0.02", "unit": "%ID/g"},
      {"measurement": "tissue uptake at 0.25 h", "setting": "[1]; [6]", "result": "2.77 ± 0.44", "unit": "%ID/g"},
      {"measurement": "tissue uptake at 0.5 h", "setting": "[1]; [6]", "result": "1.46 ± 0.24", "unit": "%ID/g"},
      {"measurement": "tissue uptake at 1 h", "setting": "[1]; [6]", "result": "0.74 ± 0.12", "unit": "%ID/g"},
      {"measurement": "tissue uptake at 2 h", "setting": "[1]; [6]", "result": "0.61 ± 0.17", "unit": "%ID/g"},
      {"measurement": "tissue uptake at 4 h", "setting": "[1]; [6]", "result": "0.33 ± 0.09", "unit": "%ID/g"},
      {"measurement": "tissue uptake at 8 h", "setting": "[1]; [6]", "result": "0.16 ± 0.02", "unit": "%ID/g"},
      {"measurement": "tissue uptake at 24 h", "setting": "[1]; [6]", "result": "0.07 ± 0.01", "unit": "%ID/g"},
      {"measurement": "tissue uptake at 0.25 h", "setting": "[1]; [7]", "result": "1.31 ± 0.21", "unit": "%ID/g"},
      {"measurement": "tissue uptake at 0.5 h", "setting": "[1]; [7]", "result": "0.7 ± 0.18", "unit": "%ID/g"},
      {"measurement": "tissue uptake at 1 h", "setting": "[1]; [7]", "result": "0.37 ± 0.19", "unit": "%ID/g"},
      {"measurement": "tissue uptake at 2 h", "setting": "[1]; [7]", "result": "0.34 ± 0.2", "unit": "%ID/g"},
      {"measurement": "tissue uptake at 4 h", "setting": "[1]; [7]", "result": "0.14 ± 0.03", "unit": "%ID/g"},
      {"measurement": "tissue uptake at 8 h", "setting": "[1]; [7]", "result": "0.06 ± 0.02", "unit": "%ID/g"},
      {"measurement": "tissue uptake at 24 h", "setting": "[1]; [7]", "result": "0.02 ± 0.01", "unit": "%ID/g"},
      {"measurement": "tissue uptake at 0.25 h", "setting": "[1]; [8]", "result": "3.29 ± 1.07", "unit": "%ID/g"},
      {"measurement": "tissue uptake at 0.5 h", "setting": "[1]; [8]", "result": "2.14 ± 1.01", "unit": "%ID/g"},
      {"measurement": "tissue uptake at 1 h", "setting": "[1]; [8]", "result": "1.38 ± 0.42", "unit": "%ID/g"},
      {"measurement": "tissue uptake at 2 h", "setting": "[1]; [8]", "result": "1.49 ± 1.12", "unit": "%ID/g"},
      {"measurement": "tissue uptake at 4 h", "setting": "[1]; [8]", "result": "0.55 ± 0.3", "unit": "%ID/g"},
      {"measurement": "tissue uptake at 8 h", "setting": "[1]; [8]", "result": "0.42 ± 0.35", "unit": "%ID/g"},
      {"measurement": "tissue uptake at 24 h", "setting": "[1]; [8]", "result": "0.06 ± 0.04", "unit": "%ID/g"},
      {"measurement": "tissue uptake at 0.25 h", "setting": "[1]; [9]", "result": "1.75 ± 0.46", "unit": "%ID/g"},
      {"measurement": "tissue uptake at 0.5 h", "setting": "[1]; [9]", "result": "1.45 ± 0.24", "unit": "%ID/g"},
      {"measurement": "tissue uptake at 1 h", "setting": "[1]; [9]", "result": "1.21 ± 0.21", "unit": "%ID/g"},
      {"measurement": "tissue uptake at 2 h", "setting": "[1]; [9]", "result": "0.77 ± 0.17", "unit": "%ID/g"},
      {"measurement": "tissue uptake at 4 h", "setting": "[1]; [9]", "result": "0.43 ± 0.09", "unit": "%ID/g"},
      {"measurement": "tissue uptake at 8 h", "setting": "[1]; [9]", "result": "0.23 ± 0.09", "unit": "%ID/g"},
      {"measurement": "tissue uptake at 24 h", "setting": "[1]; [9]", "result": "0.08 ± 0.01", "unit": "%ID/g"},
      {"measurement": "time required to reduce the cell population by 90%", "setting": "EMT-6 cells; 1.0 mM, hypoxic, 37° C.", "result": "about 1.75 h"},
      {"measurement": "cytosidal toxicity relative to MISO", "setting": "EMT-6 cells; 1.0 mM, hypoxic, same conditions", "result": "about 10 ×"},
      {"measurement": "selective toxicity to hypoxic EMT-6 tumor cells", "setting": "EMT-6 cells; in words", "result": "selective toxicity to hypoxic EMT-6 tumor cells"},
      {"measurement": "toxicity under oxic conditions", "setting": "EMT-6 cells; oxic", "result": "absence of toxicity under oxic conditions"}
    ]}
  ]
}
